Experimental data taken from US12109184B2, “Personalized methods of treating cancer” (CANCER RESEARCH TECHNOLOGY LIMITED, priority 2020, dated 2024).

How the values were obtained:
Type in all cases: cell-based
[1] = system: HCT116, SW480 and MDA-MB-468 cells; experiment: Cell counting during cysteine starvation, starvation-resistant cell lines
Description: (§1) The base medium formulation contained 0.2 mM L-histidine, 0.4 mM L-isoleucine, 0.4 mM L-leucine, 0.4 mM L-lysine, 0.2 mM L-phenylalanine, 0.4 mM L-threonine, 0.08 mM L-tryptophan, 0.4 mM L-valine, 0.2 mM L-arginine, 2 mM L-glutamine, 0.2 mM L-tyrosine, 0.4 mM L-alanine, 0.3 mM L-proline, 0.15 mM L-glutamic acid, 0.1 mM L-aspartic acid, 0.2 mM L-asparagine, and 0.4 mM glycine.
(§2) DAPI-stained cell nuclei were detected via microscopy.
(§3) AMD1 inhibitor sardomozide/SAM486A, GPX4 inhibitor RSL3, and CSE inhibitor beta-cyano-L-alanine were used.
(§4) For experiments using spermine oxidase (SMOX) and polyamine oxidase (PAOX) inhibitors or MTOB, cells were pre-treated with stated concentrations for 16 hours in complete medium. After pre-treatment, cells were washed in PBS, and treatment was continued in complete or cysteine-free medium for stated times. After treatment was finished, cells were fixed and stained as described above. For experiments using MTA, polyamines, GPX4 and CSE inhibitors, treatment started at the same time as cysteine starvation. For experiments involving hypoxic conditions, cells were seeded in normoxic conditions and allowed to adhere for 24 hours before control and cysteine starvation medium was added and cells were immediately transferred either to a humidified cell culture incubator set to 37° C. in 20% O2 (normoxia), or a hypoxia chamber set to 37° C. in 1% O2 (hypoxia) for the stated times. Cells were fixed immediately and stained as described above.

[2] = system: MDA-MB-231, MIAPaCa-2 and PANC-1 cells; experiment: Cell counting during cysteine starvation, starvation-sensitive cell lines; conditions: ferrostatin 1 μM
Description: as §1, §2, §3, §4

[3] = system: MTAP-deleted HCT116 cells; experiment: Cell counting during cysteine starvation, MTAP-deleted HCT116; conditions: ferrostatin
From the text: [NT] Successfully transfected cells were selected with puromycin and grown as clonal colonies. Clones were selected based initially on MTA efflux measured by liquid chromatography mass spectrometry (LC-MS). Clones with greatest MTA efflux were selected, and methylthioadenosine phosphorylase knockout (MTAP-KO) was then confirmed by western blot. MTAP-KO HCT116 cells were transfected with pCMV-Hygro-MTAP and pCMV-Hygro-negative control vector, selected using hygromycin B, and grown as clonal colonies. Clones were selected based initially on MTA efflux measured by LC-MS. Clones with low MTA efflux were selected, then MTAP re-expression was confirmed by western blot. […] DAPI-stained cell nuclei were detected via microscopy. […] For experiments using spermine oxidase (SMOX) and polyamine oxidase (PAOX) inhibitors or MTOB, cells were pre-treated with stated concentrations for 16 hours in complete medium. After pre-treatment, cells were washed in PBS, and treatment was continued in complete or cysteine-free medium for stated times. After treatment was finished, cells were fixed and stained as described above. For experiments using MTA, polyamines, GPX4 and CSE inhibitors, treatment started at the same time as cysteine starvation. For experiments involving hypoxic conditions, cells were seeded in normoxic conditions and allowed to adhere for 24 hours before control and cysteine starvation medium was added and cells were immediately transferred either to a humidified cell culture incubator set to 37° C. in 20% O2 (normoxia), or a hypoxia chamber set to 37° C. in 1% O2 (hypoxia) for the stated times. Cells were fixed immediately and stained as described above.

`N#CC[C@H](N)C(=O)O` [beta-cyano-L-alanine] was tested, and the “response to CSE inhibition during cysteine starvation” value ([1]; HCT116, CSE inhibitor 0.5 mM or 1 mM, 48 h) was “only a modest response” and the “sensitivity to cysteine starvation” value ([1]; SW480 and MDA-MB-468, CSE inhibitor 0.5 mM or 1 mM, 48 h) was “increased the sensitivity to cysteine starvation”.
For `CCOC(=O)c1ccc(NC2CCCCC2)c(N)c1` [ferrostatin, ferrostatin-1], the “proliferation during cysteine starvation” value [2] was “did not restore proliferation”, the “cell death in response to cysteine starvation” value ([2]; sensitive cells, 24 h and 72 h) was “prevented cell death” and the “impact on response to cysteine starvation” value ([1]; more resistant cells, ferrostatin 1 μM, 24 h and 72 h) was “little impact”. For the same compound, the “rescue of increased sensitivity to cysteine starvation” value [3] was “rescued”.
